Consider twelve compounds from publication PMC4389562, “Antigiardial activity of novel triazolyl-quinolone-based chalcone derivatives: when oxygen makes the difference” (Frontiers in Microbiology, 2015).

Molecules are shown by their SMILES. Where two headings read alike, the source gives them in different places.

In one data set the test system is Giardia. Set-up: method as in Cedillo-Rivera and Munoz, 1992. The note with it: anaerobic conditions; ref Cedillo-Rivera and Munoz, 1992; read-out: IC50 against Giardia under anaerobic conditions; cited from earlier work.
The test system of data set [1] is Giardia intestinalis trophozoites. In words: Drug susceptibility of Giardia trophozoites, ATP level by luminescence (BacTiter-Glo), 48 h incubation, anaerobic or microaerobic. It counts as cell-based, Giardia intestinalis strain WB clone C6. The note with it: for IC50: Giardia duodenalis, 48 h, 37 °C, ATP level; for selectivity ratio at 48 h: human (Caco-2 cells) versus Giardia intestinalis, Caco-2, SI = IC50,Caco-2/IC50,Giardia. How it is done:
Trophozoites of G. intestinalis strain WB clone C6 (ATCC No. 50803TM) were cultured axenically at 37^∘C in 25-cm^2 flasks containing Diamond's TYI-S-33 medium supplemented with 10% bovine calf serum, 1 mg/mL bovine bile, 0.1 g/L streptomycin and 100 U/mL penicillin. Typically, 50 ml medium was inoculated with 25 × 10^6 cells and after 2 days cells were harvested by chilling the flasks on ice for 30 min for drug susceptibility assays. […] The assays were performed following the procedure described in [Bahadur et al. (2014)], using sterile 96-well white clear-bottom plates. […] Each drug concentration was tested in at least six replicates. MTZ was used as an internal positive control in the assay. The microtiter plates were then incubated at 37^∘C under anaerobic or microaerobic conditions, ensured by the Anaerocult® A or the Anaerocult® […] (Merck), respectively. […] Following 48 h incubation with the compound to be tested, 100 μL of the BacTiter-Glo^TM Microbial Cell Viability Assay System reagent (Promega) was added to each well for one-step lysis and ATP level detection. Plates were then incubated at room temperature for 15 min and ATP levels finally detected by luminescence on a plate reader (Wallac Victor3 1420 Multilabel Counter, PerkinElmer). Luminometric data were calibrated using ATP standard curves and normalized to the ATP level measured in control DMSO-treated cells (taken as 100%). The measured ATP level percentage was plotted as a function of the compound concentration and the half-maximal inhibitory concentration (IC50) was obtained by fitting the resulting titration profile to the Hill equation ([Goutelle et al., 2008]). The selectivity index (SI) of the compounds was then calculated as the ratio between the IC50 value measured on human cells over the value determined on Giardia trophozoites (SI = IC50,Caco-2/IC50,Giardia). The antigiardial activity of the novel compounds 23-67 was tested under both anaerobic and microaerobic conditions. According to ([Dunn et al., 2010]; [Bahadur et al., 2014]), susceptibility of Giardia trophozoites to increasing concentrations of each compound was assessed based on ATP level determination by luminescence. Dose-response curves for each compound were obtained after 48 h-incubation and compared to the data collected under identical conditions with MTZ, the drug of choice for treatment of giardiasis. […] Typical dose-response curves are shown in Figure 2, whereas the IC50 values measured for the synthetic compounds and MTZ under anaerobic and microaerobic conditions are reported in Table 1. […] Under anaerobic conditions, 18 out of the 45 synthetic compounds were as effective as MTZ or more under identical conditions (see Table 1).

For the next data set, the system named is Caco-2 cells. In words: Counter-screen on Caco-2 cells, ATP level by luminescence (ATPlite), 48 h incubation. Type of data set: cell-based, human. The note with it: Homo sapiens, Caco-2, 48 h, atmospheric O2, 5% CO2, 48 h, 37 °C. As for the experimental part: Trophozoites of G. intestinalis strain WB clone C6 (ATCC No. 50803TM) were cultured axenically at 37^∘C in 25-cm^2 flasks containing Diamond’s TYI-S-33 medium supplemented with 10% bovine calf serum, 1 mg/mL bovine bile, 0.1 g/L streptomycin and 100 U/mL penicillin. […] Human epithelial colorectal adenocarcinoma (Caco-2) cells were grown in 25-cm^2 flasks in EMEM supplemented with 1% (v/v) non-essential amino acids, 2 mM glutamine, 5% (v/v) fetal bovine serum, 0.1 g/L streptomycin, and 100 U/mL penicillin.
Cells were detached with 0.5% trypsin-EDTA and seeded in sterile 96-well white clear-bottom plates at the same density of Giardia trophozoites and at increasing concentration of the compound to be tested, as described above. The assays were carried out exactly as reported for the Giardia trophozoites, except that the plates were incubated (still at 37^∘C) at atmospheric O2 level, 5% CO2, and 95% humidity. Each drug concentration was tested in at least seven replicates. MTZ was used as an internal […] control in the assay. Following 48 h incubation with each compound, according to the manufacturer instructions, 100 μL of the ATPlite^TM luminescence assay system (Perkin Elmer) was added to each well for one-step lysis and ATP level detection by luminescence.
Luminometric data were calibrated using ATP standard curves and normalized to the ATP level measured in control DMSO-treated cells (taken as 100%). The measured ATP level percentage was plotted as a function of the compound concentration and the half-maximal inhibitory concentration (IC50) was obtained by fitting the resulting titration profile to the Hill equation ([Goutelle et al., 2008]). The selectivity index (SI) of the compounds was then calculated as the ratio between the IC50 value measured on human cells over the value determined on Giardia trophozoites (SI = IC50,Caco-2/IC50,Giardia).
Selectivity of the newly synthesized compounds toward Giardia was assessed by running a counter-screen on human epithelial Caco-2 cells. […] This allowed us to calculate the compounds SI, defined as the ratio between the IC50 value measured on human cells over the value determined on Giardia trophozoites.
On the technique in general: The purpose of a counterscreen is to sort out artefacts and off-target activity.

Setting [2] is: anaerobic conditions (Anaerocult A), read-out: Giardia (anaerobiosis) IC50.
[3] abbreviates: microaerobic conditions (~5% O2, Anaerocult C), read-out: Giardia (microaerobiosis) IC50.
Where [4] appears, read: Giardia under anaerobiosis, read-out: Selectivity (IC50,Caco/IC50,Giardia) Anaerobiosis.
Where [5] appears, read: Giardia under microaerobiosis, read-out: Selectivity (IC50,Caco/IC50,Giardia) Microaerobiosis.

For orientation: IC50 means the midpoint of a concentration-inhibition curve. For the compound `CCCSc1ccc2nc(NC(=O)OC)[nH]c2c1` [albendazole], the IC50 in the data set with Giardia is less than 0.1 µM.

The melting point is the temperature, or range, at which the solid turns liquid. `O=C(/C=C/c1cc2ccccc2n(Cc2cn(-c3ccc(Cl)cc3)nn2)c1=O)c1ccc(F)cc1` [Compound 52] showed a melting point of 216 to 218 °C. Also, the half-inhibitory concentration (IC50) in data set [1] (setting [2]) stood at 8.9 µM. Further, the half-inhibitory concentration (IC50) in data set [1] (setting [3]) was determined as 1.2 µM. The selectivity ratio at 48 h in data set [1] (setting [4]) came to 2.7. The selectivity ratio at 48 h in data set [1] (setting [5]) was 19.9. Moreover, in the data set on Caco-2 cells, inhibition was half-maximal at 23.9 µM (IC50).

For `Cc1ccc(-n2cc(Cn3c(=O)c(/C=C/C(=O)c4ccc(Cl)cc4)cc4ccccc43)nn2)cc1` [Compound 35], the melting point was in the range of 196 to 198 °C. The concentration for half-maximal inhibition (IC50) in data set [1] (setting [2]) came out at 2.4 µM. The half-inhibitory concentration (IC50) in data set [1] (setting [3]) stood at 0.8 µM. For the same compound, the selectivity ratio at 48 h in data set [1] (setting [4]) was 2.9. Moreover, in data set [1] (setting [5]), the selectivity ratio at 48 h amounted to 8.8. Further, inhibition in the data set with Caco-2 cells was half-maximal at 7 µM (IC50).

For the compound `COc1ccc(-n2cc(Cn3c(=O)c(/C=C/C(=O)c4ccc(C)cc4)cc4ccccc43)nn2)cc1` [Compound 28], the melting point was in the range of 213 to 215 °C. Moreover, the IC50 in data set [1] (setting [2]) was found to be 5.4 µM. For the same compound, the IC50 in data set [1] (setting [3]) was 1.5 µM. For the same compound, the selectivity ratio at 48 h in data set [1] (setting [4]) is no less than 14. Further, the selectivity ratio at 48 h in data set [1] (setting [5]) is no less than 53. Besides, the IC50 with Caco-2 cells is no less than 80 µM.

`O=C(/C=C/c1cc2ccccc2n(Cc2cn(-c3ccc(Cl)cc3)nn2)c1=O)c1ccc(Cl)cc1` [Compound 53]: the melting point lay within 180 to 182 °C. Moreover, the 50% inhibitory concentration (IC50) in data set [1] (setting [2]) came out at 9 µM. In addition, the IC50 in data set [1] (setting [3]) came out at 1.1 µM. For the same compound, the selectivity ratio at 48 h in data set [1] (setting [4]) is no less than 3. Moreover, the selectivity ratio at 48 h in data set [1] (setting [5]) was no less than 27. The same compound gave a concentration for half-maximal inhibition (IC50) with Caco-2 cells of no less than 30 µM.

For `Cc1ccc(-n2cc(Cn3c(=O)c(/C=C/C(=O)c4ccc(Br)cc4)cc4ccccc43)nn2)cc1` [Compound 36], the melting point is 216 to 218 °C. Moreover, the half-inhibitory concentration (IC50) in data set [1] (setting [2]) came to 10.7 µM. Further, the half-maximal inhibitory concentration (IC50) in data set [1] (setting [3]) was determined as 2.3 µM. The selectivity ratio at 48 h in data set [1] (setting [4]) is no less than 4. Moreover, the selectivity ratio at 48 h in data set [1] (setting [5]) was no less than 21. Moreover, in the data set on Caco-2 cells, the IC50 was no less than 50 µM.

For `COc1ccccc1C(=O)/C=C/c1cc2ccccc2n(Cc2cn(-c3ccc(F)cc3)nn2)c1=O` [Compound 47], the melting point was in the range of 132 to 134 °C. For the same compound, the IC50 in data set [1] (setting [2]) came out at 2.7 µM. For the same compound, the IC50 in data set [1] (setting [3]) is 0.3 µM. Besides, in data set [1] (setting [4]), the selectivity ratio at 48 h is no less than 7. In data set [1] (setting [5]), the selectivity ratio at 48 h is no less than 66. In addition, the IC50 with Caco-2 cells was no less than 20 µM.

Compound `Cc1ccc(-n2cc(Cn3c(=O)c(/C=C/C(=O)c4ccccc4F)cc4ccccc43)nn2)cc1` [Compound 32] registered a melting point of 197 to 199 °C. Besides, the concentration for half-maximal inhibition (IC50) in data set [1] (setting [2]) was 3.2 µM. For the same compound, the half-maximal inhibitory concentration (IC50) in data set [1] (setting [3]) came out at 0.6 µM. For the same compound, the selectivity ratio at 48 h in data set [1] (setting [4]) is 5.5. Further, the selectivity ratio at 48 h in data set [1] (setting [5]) was 29.3. Further, inhibition with Caco-2 cells was half-maximal at 17.6 µM (IC50).

In turn, `COc1ccc(-n2cc(Cn3c(=O)c(/C=C/C(=O)c4ccccc4OC)cc4ccccc43)nn2)cc1` [Compound 29] returned a melting point of 210 to 212 °C. Further, the IC50 in data set [1] (setting [2]) came out at 2.2 µM. Further, the half-inhibitory concentration (IC50) in data set [1] (setting [3]) turned out to be 0.4 µM. In data set [1] (setting [4]), the selectivity ratio at 48 h was greater than 15. Besides, the half-inhibitory concentration (IC50) in the data set with Caco-2 cells was no less than 40 µM.

Consider `O=C(/C=C/c1cc2ccccc2n(Cc2cn(-c3ccccc3)nn2)c1=O)c1ccc(F)cc1` [Compound 61], for which the melting point lay in the range of 202 to 204 °C. Further, the IC50 in data set [1] (setting [2]) was 5.3 µM. For the same compound, the 50% inhibitory concentration (IC50) in data set [1] (setting [3]) is 0.8 µM. The selectivity ratio at 48 h in data set [1] (setting [4]) worked out at 3.4. Besides, in data set [1] (setting [5]), the selectivity ratio at 48 h amounted to 22.8. In the data set with Caco-2 cells, this compound registered an IC50 of 18.2 µM.

In turn, `O=C(/C=C/c1cc2ccccc2n(Cc2cn(-c3ccc(F)cc3)nn2)c1=O)c1cccc(F)c1` [Compound 42] displayed a melting point of 203 to 205 °C. Moreover, the 50% inhibitory concentration (IC50) in data set [1] (setting [2]) came to 3.3 µM. Moreover, the IC50 in data set [1] (setting [3]) was 0.7 µM. The selectivity ratio at 48 h in data set [1] (setting [4]) was determined as 2.9. In addition, the selectivity ratio at 48 h in data set [1] (setting [5]) came out at 13.7. This compound showed a half-maximal inhibitory concentration (IC50) in the data set on Caco-2 cells of 9.6 µM.

As to `O=C(/C=C/c1cc2ccccc2n(Cc2cn(-c3ccc(F)cc3)nn2)c1=O)c1ccc(F)cc1` [Compound 43], the melting point was in the range of 202 to 204 °C. Further, in data set [1] (setting [2]), the IC50 stood at 1.2 µM. Besides, the 50% inhibitory concentration (IC50) in data set [1] (setting [3]) was 0.3 µM. The “fold more efficient than MTZ against Giardia” value in data set [1] (anaerobic conditions, relative to MTZ) is reported as “three to fourfold”. Also, the selectivity ratio at 48 h in data set [1] (setting [4]) came out at 5.8. The selectivity ratio at 48 h in data set [1] (setting [5]) was determined as 23.3. In the data set with Caco-2 cells, the concentration for half-maximal inhibition (IC50) was found to be 7 µM.
